Assay results: US20230187019A1, “METHOD FOR DETERMINING A DRUG COMBINATION VIA A BLOCKING MODEL OF A MULTI-SITE-TARGETED PROTEIN AND APPLICATIONS THEREOF” (National Tsing Hua University, priority 2021, published 2023)
“Also recorded” adds a separate entry of the source. Like-named read-outs stand apart in the source and are kept apart here.

How the values were obtained:
shCtrl/HCT116 = test: Cell viability assay on shCtrl/HCT116 (control strain); assay type: cell-based, human; conditions: for viability at 20 µM: Homo sapiens
AsPC-1 = test: Cell viability assay (MTT) on AsPC-1; conditions: for viability at 20 µM: Homo sapiens, ASPC1, read-out: AsPC-1 Cell Viability, remaining viability, 20 μM drug, normalized by blank control, three repeats
Procedure: The cell viability was measured using the MTT assay or CellTiter-Glo Luminescent Cell Viability Assay. For MTT assay, mouse AK4.4 (1,000 cells/well) and human AsPC-1 (1,500 cells/well) cells were seeded in 96-well plates and cultured in serum-free medium (SFM) containing indicated concentrations of drugs for 48 hours. To measure the cell viability, 15 μL MTT (3-(4,5-dimethylthiazol-2-yl)-2,5-diphenyltetrazolium bromide, 5 mg/mL in PBS) was added in each well and kept at 37° C. for three hours. The precipitated crystals were then dissolved in 50 μL DMSO, and the absorbance at 570 nm was measured by Multiskan GO Microplate Spectrophotometer (Thermo Scientific, USA) to estimate the cell survival rate. To quantify the drug combination effect, the combination index was calculated when the cell viability was reduced by 50% using the following Equation (1):

shATG4B/HCT116 = test: Cell viability assay on shATG4B/HCT116 (ATG4B silencing strain); assay type: cell-based, human; conditions: for viability at 20 µM: Homo sapiens; for difference of cell viability inhibition between shATG4B/HCT116 (S strain) and shCtrl/HCT116 (C strain): Student's t-test, p-value <0.05
HCT116 = test: Cell viability assay on HCT116; assay type: cell-based, human; conditions: Homo sapiens
[1] = target: full-length fusion protein composed of C-Myc, pro-LC3B, and S-tag, Q9GZQ8
[2] = HCT-116, remaining viability, 20 μM drug, C strain, read-out: shCtrl/HCT116 Cell Viability
[3] = HCT-116, remaining viability, 20 μM drug, S strain, read-out: shATG4B/HCT116 Cell Viability
[4] = HCT-116, remaining viability, 20 μM drug, normalized by blank control, three repeats, read-out: HCT116 Cell Viability

| Molecule | viability at 20 µM (shCtrl/HCT116; [2]) [%] | viability at 20 µM (AsPC-1) [%] | viability at 20 µM (shATG4B/HCT116; [3]) [%] | viability at 20 µM (HCT116; [4]) [%] | further results |
| --- | --- | --- | --- | --- | --- |
| CCC(C)n1ncn(-c2ccc(N3CCN(c4ccc(OCC5COC(Cn6cncn6)(c6ccc(Cl)cc6Cl)O5)cc4)CC3)cc2)c1=O (stereo not drawn) [Itraconazole] | 84.1 ± 1.9 | 93.6 ± 6.3 | 91.3 ± 2.3 | 82.6 ± 2.1 |  |
| COC(=O)N[C@H](C(=O)N1CC2(CC2)C[C@H]1c1nc(-c2ccc3c(c2)C(F)(F)c2cc(-c4ccc5[nH]c([C@@H]6[C@H]7CC[C@H](C7)N6C(=O)[C@@H](NC(=O)OC)C(C)C)nc5c4)ccc2-3)c[nH]1)C(C)C [Ledipasvir] |  | 95.2 ± 2.9 |  |  | viability at 20 µM (shCtrl/HCT116; HCT-116, read-out: shCtrl/HCT116 Cell Viability, remaining viability, 20 μM drug, C strain): 72.5 ± 0.8%; viability at 20 µM (shATG4B/HCT116; HCT-116, read-out: shATG4B/HCT116 Cell Viability): 90.2 ± 1.8%; difference of cell viability inhibition between shATG4B/HCT116 (S strain) and shCtrl/HCT116 (C strain) (shATG4B/HCT116): statistically significant; also recorded: significant differences; viability at 20 µM (HCT116; HCT-116, read-out: HCT116 Cell Viability, remaining viability, 20 μM drug, normalized by blank control, three repeats): 82.9 ± 2.7% |
| Cc1cn(-c2cc(NC(=O)c3ccc(C)c(Nc4nccc(-c5cccnc5)n4)c3)cc(C(F)(F)F)c2)cn1 [Nilotinib] | 59.6 ± 1.7 | 95.2 ± 3.4 | 68.2 ± 1.1 | 61.4 ± 4.4 |  |
| Cc1cnc(C(=O)N[C@H]2CCCCC/C=C\[C@@H]3C[C@@]3(C(=O)NS(=O)(=O)C3CC3)NC(=O)[C@@H]3C[C@@H](Oc4nc5ccccc5c5ccccc45)CN3C2=O)cn1 [Paritaprevir] | 75.4 ± 1.3 | 98.7 ± 3 | 88 ± 1.4 | 85.8 ± 3.3 | difference of cell viability inhibition between shATG4B/HCT116 (S strain) and shCtrl/HCT116 (C strain) (shATG4B/HCT116): statistically significant; also recorded: significant differences |
| CC(C)(C)NC(=O)[C@@H]1C[C@@H]2CCCC[C@@H]2CN1C[C@@H](O)[C@H](Cc1ccccc1)NC(=O)[C@H](CC(N)=O)NC(=O)c1ccc2ccccc2n1 [Saquinavir] | 63.5 ± 0.8 | 84.6 ± 5.5 | 65.4 ± 1.2 | 67 ± 1.2 |  |
| Cc1ccc(C(=O)Nc2ccc(S(=O)(=O)O)c3cc(S(=O)(=O)O)cc(S(=O)(=O)O)c23)cc1NC(=O)c1cccc(NC(=O)Nc2cccc(C(=O)Nc3cc(C(=O)Nc4ccc(S(=O)(=O)O)c5cc(S(=O)(=O)O)cc(S(=O)(=O)O)c45)ccc3C)c2)c1 [Suramin] | 104 ± 4.4 | 107 ± 6.5 | 98.3 ± 0.7 | 100 ± 2.3 |  |
| CO[C@H]1C[C@@H]2CC[C@@H](C)[C@@](O)(O2)C(=O)C(=O)N2CCCC[C@H]2C(=O)O[C@H]([C@H](C)C[C@@H]2CC[C@@H](OC(=O)C(C)(CO)CO)[C@H](OC)C2)CC(=O)[C@H](C)/C=C(\C)[C@@H](O)[C@@H](OC)C(=O)[C@H](C)C[C@H](C)/C=C/C=C/C=C/1C [Temsirolimus] | 50 | 69 ± 4.2 | 60 | 52.1 ± 0.9 | shCtrl/HCT116 Cell Viability (shCtrl/HCT116; remaining viability, 20 μM drug, C strain): 49.5 ± 3.5%; inhibition of cell viability, significance (AsPC-1; 20 μM, AsPC-1, p-value <0.05): statistically significant; difference of cell viability inhibition between shATG4B/HCT116 (S strain) and shCtrl/HCT116 (C strain) (shATG4B/HCT116; listed as emsirolimus): significant differences; difference of cell viability inhibition between shATG4B/HCT116 (S strain) and shCtrl/HCT116 (C strain) (shATG4B/HCT116; listed as temsirolimus): statistically significant; shATG4B/HCT116 Cell Viability (shATG4B/HCT116; remaining viability, 20 μM drug, S strain): 60.5 ± 1.9% |
| autophagy related 4B cysteine peptidase (ATG4B) (protein) MDAATLTYDTLRFAEFEDFPETSEPVWILGRKYSIFTEKDEILSDVASRLWFTYRKNFPAIGGTGPTSDTGWGCMLRCGQMIFAQALVCRHLGRDWRWTQRKRQPDSYFSVLNAFIDRKDSYYSIHQIAQMGVGEGKSIGQWYGPNTVAQVLKKLAVFDTWSSLAVHIAMDNTVVMEEIRRLCRTSVPCAGATAFPADSDRHCNGFPAGAEVTNRPSPWRPLVLLIPLRLGLTDINEAYVETLKHCFMMPQSLGVIGGKPNSAHYFIGYVGEELIYLDPHTTQPAVEPTDGCFIPDESFHCQHPPCRMSIAELDPSIAVGFFCKTEDDFNDWCQQVKKLSLLGGALPMFELVELQPSHLACPDVLNLSLDSSDVERLERFFDSEDEDFEILSL |  |  |  |  | cleavage of recombinant pro-LC3B (S-tag band on western blot) [1]: P: positive control, pro-LC3 mixed with ATG4B, and the cleavage by ATG4B resulting in the lighter band for S-tag; normalized S-tag band intensity (LICOR; divided by the negative control N) of lane P, no peptide, blot of the N7 series, ATG4B cleavage assay [1]: 0.3; normalized S-tag band intensity (divided by the negative control N) of lane P, no peptide, blot of the N18 series, ATG4B cleavage assay [1]: 0.3; normalized S-tag band intensity (image J; divided by the negative control N) of lane P, no peptide, blot of the N7 series, ATG4B cleavage assay [1]: 0.4 |
